Values of other authors as cited in patent US9889150B2, “Agents for the prevention and/or treatment of central nervous system damage” (The University Of Liverpool, priority 2012, dated 2018).

Experiments:
OECs and astrocytes = conditions: previous work; cited from earlier work
FGFR3 = FGFR3 (Homo sapiens, UniProt P22607); conditions: cited from earlier work
Sequence of FGFR3 (P22607 23-806, species assumed): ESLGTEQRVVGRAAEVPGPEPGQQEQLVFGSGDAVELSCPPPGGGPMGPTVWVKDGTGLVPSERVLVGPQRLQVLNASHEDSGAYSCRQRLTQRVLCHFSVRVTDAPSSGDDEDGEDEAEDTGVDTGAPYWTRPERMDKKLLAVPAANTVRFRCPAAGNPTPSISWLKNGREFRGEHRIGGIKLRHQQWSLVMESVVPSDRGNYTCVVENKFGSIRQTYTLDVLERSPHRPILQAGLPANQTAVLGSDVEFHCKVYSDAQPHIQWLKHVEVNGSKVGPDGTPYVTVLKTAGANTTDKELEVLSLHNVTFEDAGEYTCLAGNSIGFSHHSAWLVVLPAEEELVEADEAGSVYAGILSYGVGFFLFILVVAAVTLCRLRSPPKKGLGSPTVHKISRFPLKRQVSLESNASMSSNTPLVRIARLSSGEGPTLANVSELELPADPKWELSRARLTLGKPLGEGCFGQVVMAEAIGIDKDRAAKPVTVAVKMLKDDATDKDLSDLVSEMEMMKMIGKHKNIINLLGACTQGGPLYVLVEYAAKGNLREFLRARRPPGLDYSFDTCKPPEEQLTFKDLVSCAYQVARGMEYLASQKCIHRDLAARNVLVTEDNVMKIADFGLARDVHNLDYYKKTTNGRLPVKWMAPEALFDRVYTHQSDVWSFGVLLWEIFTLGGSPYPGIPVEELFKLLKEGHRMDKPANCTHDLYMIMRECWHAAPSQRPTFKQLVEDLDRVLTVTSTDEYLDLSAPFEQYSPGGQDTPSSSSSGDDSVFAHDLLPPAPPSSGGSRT

Cc1c[nH]c(/C=C2\C(=O)Nc3ccccc32)c1CCC(=O)O [SU5402]
SCM-induced boundary formation in OEC/astrocyte cultures (OECs and astrocytes): disrupts SCM-induced boundary formation | inhibition of FGFR3 (FGFR3): effectively inhibit FGFR3
